Assay results published in PubChem BioAssay AID1224898.

test system: Trichuris muris adults ex vivo, WormWatcher motility, 24 h; test: motility loss in adult Trichuris muris, dose response, whole organism, ex vivo, WormWatcher (AID 1224898); call rule not given here

EC50, active:
O=C1COCc2cc(-c3cccnc3)ccc2N1CC1CCCCC1 52 µM
O=C1COCc2cc(-c3cccnc3)ccc2N1Cc1ccc(C(F)(F)F)cc1 26 µM
Cc1ccc(CN2C(=O)COCc3cc(-c4ccncc4)ccc32)cc1 50 µM
Cc1ccc(CN2C(=O)COCc3cc(-c4cccnc4)ccc32)cc1 57 µM
Cc1ccc(CN2C(=O)COCc3cc(Br)ccc32)cc1 35 µM
